This passage reports IC50, MIC and IC5 results from ChEMBL document CHEMBL5096160, “Targeting SHP2 as a therapeutic strategy for inflammatory diseases” (Eur J Med Chem, 2021).

Molecules are shown by their SMILES. ≈ marks a conversion by molar mass, not a printed value.

The IC50 is the concentration needed to halve the response being measured.

Experiment [1] addresses T1, Tyrosine-protein phosphatase non-receptor type 11 (Homo sapiens, UniProt Q06124).
T1 sequence (Q06124 whole entry): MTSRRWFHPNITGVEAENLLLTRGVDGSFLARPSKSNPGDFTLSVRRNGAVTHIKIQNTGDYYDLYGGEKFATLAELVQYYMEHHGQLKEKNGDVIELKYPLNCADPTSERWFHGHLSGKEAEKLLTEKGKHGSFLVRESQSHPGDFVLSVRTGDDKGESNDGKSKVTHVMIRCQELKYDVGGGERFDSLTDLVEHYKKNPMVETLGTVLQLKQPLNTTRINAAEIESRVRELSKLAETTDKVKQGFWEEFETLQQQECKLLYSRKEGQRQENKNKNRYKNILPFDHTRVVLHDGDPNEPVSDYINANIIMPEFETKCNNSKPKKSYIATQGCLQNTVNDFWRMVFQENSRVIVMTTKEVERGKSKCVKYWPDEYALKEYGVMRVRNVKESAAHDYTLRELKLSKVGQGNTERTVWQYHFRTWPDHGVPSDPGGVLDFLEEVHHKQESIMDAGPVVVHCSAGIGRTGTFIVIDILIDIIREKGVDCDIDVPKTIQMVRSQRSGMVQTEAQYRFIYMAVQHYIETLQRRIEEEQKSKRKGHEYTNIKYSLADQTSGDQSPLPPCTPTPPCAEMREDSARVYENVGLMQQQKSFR
In words: Inhibition of human recombinant SHP2 expressed in Escherichia coli using p-nitrophenyl phosphate as substrate preincubated for 2 mins followed by substrate addition by microplate spectrophotometer analysis.

The target of experiment [2] is T1, Tyrosine-protein phosphatase non-receptor type 11. In words: Inhibition of recombinant human GST-tagged SHP2 expressed in Escherichia coli BL21 incubated for 30 mins by DiFMUP fluorescence assay.
The next experiment relates to A549. In words: Antiproliferative activity against human A549 cells assessed as inhibition of cell growth measured after 72 hrs by CCK-8 assay. The conditions noted are these: A549, 72 h. The class given is functional, cell-based.
Experiment [3] deals with T1, Tyrosine-protein phosphatase non-receptor type 11. In words: Inhibition of human SHP2 catalytic domain expressed in Escherichia coli using p-nitrophenyl phosphate as substrate by spectrophotometric method.
The target is the same in experiment [4]. In words: Inhibition of N-terminal 6His-tagged full-length H2N-VE(pY)LDLDLD(PEG8)RVD(pY)VVVDQQ-amide-activated SHP2 (247 to 529 residues) (unknown origin) expressed in Escherichia coli BL21 (DE3) using DiFMUP as substrate preincubated for 10 to 30 mins with activating peptide prior to compound addition for 30 mins followed by substrate addition and measured for 6 mins by fluorescence based assay.

The next experiment deals with SW1463. In words: Cytotoxicity against human SW1463 cells assessed as inhibition of cell growth incubated for 120 hrs by MTT assay. The class given is functional, cell-based. The conditions noted are these: SW1463, 120 h.
Experiment [5] has as its target T2, Tyrosine-protein phosphatase non-receptor type 11 (Homo sapiens) (UniProt Q06124).
T2 sequence (whole entry): T1 sequence (Q06124 whole entry)
In words: Inhibition of SHP2 in human LS180 cells. The class given is cell-based.

The next experiment has as its system BaF3. Description: Cytotoxicity against mouse BaF3 cells assessed as inhibition of cell proliferation incubated for 48 hrs by MTT assay. The conditions noted are these: BaF3, 48 h. The class given is functional, cell-based. (Formazan colour is commonly taken as a measure of viable cells.)
Experiment [6] is described as follows: Cytotoxicity against human LN-444 cells assessed as reduction in cell viability incubated for 72 hrs by WST-1 assay. The class given is functional, cell-based. The conditions noted are these: LN-444, 72 h.
The next experiment concerns Capan-2. Description: Cytotoxicity against human Capan-2 cells harbouring K-ras mutant assessed as reduction in cell viability incubated for 144 hrs. The class given is functional, cell-based. The note with it: Capan-2, 144 h.
Experiment [7] concerns the target T1, Tyrosine-protein phosphatase non-receptor type 11. Description: Inhibition of N-terminal hexaHis-tagged catalytic domain of human SHP2 (248 to 527 residues) expressed as Escherichia coli Rosetta (DE3) using DiFMUP as substrate preincubated for 1 hr followed by substrate addition by fluorescence based analysis.
Experiment [8] deals with Tyrosine-protein phosphatase non-receptor type 11 (Mus musculus, UniProt P35235). In words: Inhibition of SHP2 in mouse EMT6 cells harboring SOS1 mutation. The class given is cell-based.
For experiment [9], the target named is T1, Tyrosine-protein phosphatase non-receptor type 11. In words: Inhibition of SHP2 (unknown origin) using EFpYAEVGRSPPDPAK incubated for 0.5 hrs by malachite green reagent based assay.
The target of experiment [10] is Tyrosine-protein phosphatase non-receptor type 6 (Homo sapiens) (UniProt P29350). In words: Inhibition of SHP1 (unknown origin) using EFpYAEVGRSPPDPAK incubated for 0.5 hrs by malachite green reagent assay.
The target of experiment [11] is T2, Tyrosine-protein phosphatase non-receptor type 11 (Homo sapiens). Description: Inhibition of recombinant SHP2 (unknown origin).
The target in experiment [12] is T1, Tyrosine-protein phosphatase non-receptor type 11. Description: Inhibition of GST-tagged SHP2 (unknown origin) using 8-difluoro-4-methylumbelliferyl phosphate as a substrate measured after 30 mins by fluorescence based analysis.

Tyrosine-protein phosphatase non-receptor type 11 (Mus musculus, UniProt P35235), sequence (P35235 2-593 limits assumed, change not shown): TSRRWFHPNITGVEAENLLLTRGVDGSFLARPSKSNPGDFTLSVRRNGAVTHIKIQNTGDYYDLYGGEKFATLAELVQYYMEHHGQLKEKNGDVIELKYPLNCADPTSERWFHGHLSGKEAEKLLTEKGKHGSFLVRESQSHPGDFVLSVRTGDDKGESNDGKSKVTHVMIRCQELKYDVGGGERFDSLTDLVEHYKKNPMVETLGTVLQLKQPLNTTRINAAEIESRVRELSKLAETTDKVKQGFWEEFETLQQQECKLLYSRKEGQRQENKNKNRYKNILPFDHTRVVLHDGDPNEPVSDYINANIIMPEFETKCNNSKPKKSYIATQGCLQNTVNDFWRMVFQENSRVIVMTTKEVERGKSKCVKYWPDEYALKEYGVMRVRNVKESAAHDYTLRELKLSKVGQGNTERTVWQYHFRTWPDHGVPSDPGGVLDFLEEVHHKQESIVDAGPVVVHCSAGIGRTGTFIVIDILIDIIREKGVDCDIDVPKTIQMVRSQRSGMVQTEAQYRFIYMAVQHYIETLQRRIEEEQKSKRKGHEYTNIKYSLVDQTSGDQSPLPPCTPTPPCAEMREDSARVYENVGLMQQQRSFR
Tyrosine-protein phosphatase non-receptor type 6 (Homo sapiens), sequence (P29350 whole entry): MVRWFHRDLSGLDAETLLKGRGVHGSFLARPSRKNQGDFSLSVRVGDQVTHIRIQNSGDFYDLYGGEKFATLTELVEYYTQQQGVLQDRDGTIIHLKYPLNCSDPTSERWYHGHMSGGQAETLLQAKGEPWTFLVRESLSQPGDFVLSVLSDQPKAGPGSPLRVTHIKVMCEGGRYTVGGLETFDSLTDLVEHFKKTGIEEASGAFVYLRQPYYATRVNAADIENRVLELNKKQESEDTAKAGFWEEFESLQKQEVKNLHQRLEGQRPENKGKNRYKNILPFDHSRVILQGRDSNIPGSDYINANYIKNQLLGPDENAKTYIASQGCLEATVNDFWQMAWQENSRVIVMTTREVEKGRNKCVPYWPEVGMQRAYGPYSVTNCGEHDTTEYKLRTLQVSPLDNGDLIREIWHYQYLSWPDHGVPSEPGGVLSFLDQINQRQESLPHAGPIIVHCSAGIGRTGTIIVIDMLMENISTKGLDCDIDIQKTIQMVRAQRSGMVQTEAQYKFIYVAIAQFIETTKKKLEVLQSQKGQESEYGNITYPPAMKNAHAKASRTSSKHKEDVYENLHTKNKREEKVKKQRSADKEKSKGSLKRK

As to `CCOC(=O)c1sc(-c2ccc([N+](=O)[O-])cc2)nc1COc1ccc(Cl)cc1`, in [1], the IC50 was 4300 nM.
For the molecule `CC(=O)O[C@H]1CC[C@]2(C)c3c(O)c4c(c(O)c3C(=O)CC2C1(C)C)C[C@H](C)O4` (some centres undefined), the figures for the IC50 (in experiment [2]; with A549) were 8790 nM and 10800 nM, respectively.
`CCCCCCCCCC[C@@H](C)C(=O)C1=C2C3=COC(C)=CC3=CC(=O)[C@]2(C)OC1=O`: in experiment [3], inhibition was half-maximal at 700 nM (IC50).
On to `N[C@@H]1COCC12CCN(c1cnc3c(Sc4cccc(Cl)c4Cl)n[nH]c3n1)CC2`, for which the values for the IC50 (in [4]; with SW1463) were 2.1 nM and 590 nM, respectively. For the same molecule, the MIC in experiment [5] stood at 10 µM (≈ 4.51 µg/mL).
In the case of `CC1(N)CCN(c2cnc(-c3cccc(Cl)c3Cl)c(N)n2)CC1`, the IC50 in the experiment on BaF3 was 19900 nM; in experiment [6], 38000 nM; in the experiment with Capan-2 it was 15700 nM.
Molecule `O=C1/C(=N/Nc2ccc(S(=O)(=O)O)cc2)C(c2ccc([N+](=O)[O-])cc2)=NN1c1ccc([N+](=O)[O-])cc1` registered an IC50 in [7] of 71 nM.
In the case of `CCOC(=O)c1sc(-c2ccc(OC)cc2)nc1COc1ccc(Cl)cc1`, in [1], the IC50 amounted to 990 nM.
In turn, `Cc1nc(N2CCC3(CC2)CO[C@@H](C)[C@H]3N)c(CO)nc1-c1cccc(Cl)c1Cl` registered a half-inhibitory concentration (IC50) in [8] of 7 nM.
Consider `NCC1CCN(c2ncc(-c3cccc(Cl)c3Cl)cc2CO)CC1`, for which the IC50 in experiment [9] was determined as 1360 nM; in the experiment with BaF3 it was 2350 nM. In experiment [10], this molecule registered an IC5 of 100 µM.
Regarding `CCCCCCCCCCCC(=O)C1=C2C3=COC(C)=CC3=CC(=O)[C@]2(C)OC1=O`, it took 800 nM to reach half-maximal inhibition in experiment [3] (IC50).
Take `O=C(O)c1ccccc1-c1ccc(/C=c2/sc3nc4cc(Br)cnc4n3c2=O)o1`: the IC5 in experiment [11] is 1.1 µM.
Molecule `C/C(=C\[C@H](O)C[C@@H](C)[C@H]1CC[C@@]2(C)[C@@H]3CC[C@H]4C(C)(C)[C@@H](O)CC[C@@]45C[C@@]35CC[C@]12C)C(=O)O` displayed an IC50 in experiment [12] of 19000 nM.
